Laboratory results reported in article PMC5584254, “Identification of novel small molecule Beclin 1 mimetics activating autophagy” (Oncotarget, 2017).
Structures can show the parent of a compound that is named as a salt. Where two headings read alike, the source gives them in different places.

Legend:
Bcl-xL-Beclin 1 complex [1] = target: T1, Bcl-xL-Beclin 1 complex (Homo sapiens, UniProt Q07817); assay: FP-based high-throughput screening, primary screen; type: binding; conditions: first screen; 40 μM compound, 2.5 μM Bcl-xL, 400 nM 20-mer
T1 construct: made in house
T1 sequence (Q07817 whole entry, one chain of several): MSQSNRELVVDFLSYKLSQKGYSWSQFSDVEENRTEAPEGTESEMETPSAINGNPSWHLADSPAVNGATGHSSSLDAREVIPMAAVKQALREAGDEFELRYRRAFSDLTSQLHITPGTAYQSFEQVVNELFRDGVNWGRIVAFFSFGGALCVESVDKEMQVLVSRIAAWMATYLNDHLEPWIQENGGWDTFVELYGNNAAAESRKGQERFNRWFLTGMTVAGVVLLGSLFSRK
Description: Next, we optimized the FP competitive binding assay in a 384-well microplate format and carried out a small-scale HTS using a small library, which contains 6580 compounds from Prestwick, Microsource and our in-house CMLD library. Then, the FP assay was optimized and applied in screening the larger Chembridge library consisting of 43736 compounds. HTS cascades are shown in Supplementary Figure 1A–1B. […] All chemical structures can be found on the PubChem website (http://pubchem.ncbi.nlm.nih.gov/).
(§1) Then the plates were read by Envision (Perkin Elmer, Waltham, MA). […] The hits were selected from library stocks and reconfirmed in a concentration response FP assay (6 doses ranging from 5 μM to 160 μM or 8 doses ranging from 0.5 μM to 60 μM).

Bcl-xL-Beclin 1 complex [2] = target: T1, Bcl-xL-Beclin 1 complex; assay: Concentration response FP reconfirmation of HTS hits; type: binding; conditions: for inhibition at 5 µM: read-out: Dose-response (% Inhibition) 5 μM; for inhibition at 10 µM: read-out: Dose-response (% Inhibition) 10 μM; for inhibition at 20 µM: read-out: Dose-response (% Inhibition) 20 μM; for inhibition at 40 µM: read-out: Dose-response (% Inhibition) 40 μM; for inhibition at 80 µM: read-out: Dose-response (% Inhibition) 80 μM; for inhibition at 160 µM: read-out: Dose-response (% Inhibition) 160 μM
Description: as §1

SMILES | Primary Screen mP (Bcl-xL-Beclin 1 complex [1]) [mP] | inhibition at 40 µM (Bcl-xL-Beclin 1 complex [1]) [%] | inhibition at 5 µM (Bcl-xL-Beclin 1 complex [2]; 5 μM, hits of first screen) [%] | inhibition at 10 µM (Bcl-xL-Beclin 1 complex [2]; 10 μM, hits of first screen) [%] | inhibition at 20 µM (Bcl-xL-Beclin 1 complex [2]; 20 μM, hits of first screen) [%] | inhibition at 40 µM (Bcl-xL-Beclin 1 complex [2]; 40 μM, hits of first screen) [%] | inhibition at 80 µM (Bcl-xL-Beclin 1 complex [2]; 80 μM, hits of first screen) [%] | inhibition at 160 µM (Bcl-xL-Beclin 1 complex [2]; 160 μM, hits of first screen) [%] | further results
O=C1C=C2CC3(O)COc4cc(O)ccc4C3=C2C=C1O (centres unmarked) [Compound A01, BRAZILEIN] | 96.0 | 31 | 8 | 16.9 | 23 | 35.7 | 57.8 | 74.8 | 
CC(C)=CCCC1(C)C=Cc2c(O)c3c(c(CC=C(C)C)c2O1)OC12C(=CCCC1C(C)(C)O[C@@]2(C/C=C(\C)C(=O)O)C(=O)O)C3=O (some centres unmarked) [Compound A02, GARCINOLIC ACID] | 124.0 | 11.8 | 2.5 | 3.3 | 3.6 | 7.5 | 18.1 | 22 | 
O=C1c2cccc(O)c2C(=O)c2c(O)cccc21 [Compound A03, DANTHRON] | 126.4 | 9.62 | -1.2 | 1.4 | 4.8 | 4.9 | 8.7 | 19.7 | 
CCCCCc1c2c(cc(O)c1C(=O)O)OC(=O)c1c(cc(OC)cc1C(=O)CCCC)O2 [Compound A04, LOBARIC ACID] | 129.2 | 7.13 | 1.4 | 2.3 | 2 | 3.2 | 10.2 | 13.7 | 
C[n+]1cc2c3c(ccc2c2ccc4cc5c(cc4c21)OCO5)OCO3 [Compound A05, SANGUINARINE SULFATE] | 130.6 | 6.61 |  |  |  |  |  |  | inhibition at 5 µM (Bcl-xL-Beclin 1 complex [2]): -1.4%; inhibition at 10 µM (Bcl-xL-Beclin 1 complex [2]): -0.2%; inhibition at 20 µM (Bcl-xL-Beclin 1 complex [2]): 2%; inhibition at 40 µM (Bcl-xL-Beclin 1 complex [2]): 8.4%; inhibition at 80 µM (Bcl-xL-Beclin 1 complex [2]): 20.6%; inhibition at 160 µM (Bcl-xL-Beclin 1 complex [2]): 31.1%
CCCCC(CC)CCC(CC(C)C)OS(=O)(=O)O (centres unmarked) [Compound A06, SODIUM TETRADECYL SULFATE] | 121.5 | 9.56 | -7.3 | -3.8 | -1 | 2.6 | 15.4 | 24.4 | 
CN(C)c1ccc(C(=C2C=CC(=[N+](C)C)C=C2)c2ccc(N(C)C)cc2)cc1 [Compound A08, GENTIAN VIOLET] | 123.0 | 11.7 | 1.9 | 3.7 | 5.8 | 6.6 | 21.2 | 22.7 | 
COC(=O)CC[C@@H](C)[C@H]1CC[C@H]2[C@@H]3[C@H](O)C[C@@H]4C[C@H](O)CC[C@]4(C)[C@H]3C[C@H](O)[C@]12C [Compound A09, CHOLIC ACID, METHYL ESTER] | 127.0 | 9.59 | 1.6 | 1.5 | 1.7 | 4.2 | 9.3 | 13.2 | 
COC(=O)Nc1nc2ccc(Sc3ccccc3)cc2[nH]1 [Compound A10, FENBENDAZOLE] | 128.0 | 8.47 | -3.4 | 2.3 | 0.2 | -0.1 | -0.4 | 8.8 | 
O=C1c2c(O)ccc(O)c2C(=O)c2c(NCCNCCO)ccc(NCCNCCO)c21 [Compound A11, MITOXANTRONE HYDROCHLORIDE] | 99.8 | 26.3 | -2.2 | 4.3 | 11.2 | 19.5 | 32.9 | 32.2 | 
CC[n+]1c(-c2ccccc2)c2cc(N)ccc2c2ccc(N)cc21 [Compound A12, HOMIDIUM BROMIDE] | 113.8 | 15.3 |  |  |  |  |  |  | inhibition at 5 µM (Bcl-xL-Beclin 1 complex [2]): 3.5%; inhibition at 10 µM (Bcl-xL-Beclin 1 complex [2]): 5.5%; inhibition at 20 µM (Bcl-xL-Beclin 1 complex [2]): 7.2%; inhibition at 40 µM (Bcl-xL-Beclin 1 complex [2]): 12%; inhibition at 80 µM (Bcl-xL-Beclin 1 complex [2]): 26.1%; inhibition at 160 µM (Bcl-xL-Beclin 1 complex [2]): 39.2%
O=C(O)C1=CC(=C(c2ccc(O)c(C(=O)O)c2)c2ccc(O)c(C(=O)O)c2)C=CC1=O [Compound A14, AURIN TRICARBOXYLIC ACID] | 129.7 | 6.76 | 0.7 | 2 | 3.8 | 4.8 | 8.1 | 8.6 | 
CCCc1nc2c(C)cc(-c3nc4ccccc4n3C)cc2n1Cc1ccc(-c2ccccc2C(=O)O)cc1 [Compound A16] | 125.4 | 5.2 | -1.1 | -0.6 | -0.1 | 1.6 | 6.3 | 11.1 | 
CCCCCCCCCc1ccc(OCCOCCOCCOCCOCCOCCOCCOCCOCCO)cc1 [Compound A17, NONOXYNOL-9] | 127.2 | 9.04 |  |  |  |  |  |  | inhibition at 5 µM (Bcl-xL-Beclin 1 complex [2]): -0.3%; inhibition at 10 µM (Bcl-xL-Beclin 1 complex [2]): 6.2%; inhibition at 20 µM (Bcl-xL-Beclin 1 complex [2]): 5.9%; inhibition at 40 µM (Bcl-xL-Beclin 1 complex [2]): 5.3%; inhibition at 80 µM (Bcl-xL-Beclin 1 complex [2]): 12.9%; inhibition at 160 µM (Bcl-xL-Beclin 1 complex [2]): 11.1%
CN1C[C@H](C(=O)N[C@]2(C)O[C@@]3(O)[C@@H]4CCCN4C(=O)[C@H](Cc4ccccc4)N3C2=O)C=C2c3cccc4[nH]cc(c34)C[C@H]21 [Compound A18, ERGOTAMINE TARTRATE] | 122.3 | 11 |  |  |  |  |  |  | inhibition at 5 µM (Bcl-xL-Beclin 1 complex [2]): -0.2%; inhibition at 10 µM (Bcl-xL-Beclin 1 complex [2]): 0.3%; inhibition at 20 µM (Bcl-xL-Beclin 1 complex [2]): 3.3%; inhibition at 40 µM (Bcl-xL-Beclin 1 complex [2]): 5.8%; inhibition at 80 µM (Bcl-xL-Beclin 1 complex [2]): 15.6%; inhibition at 160 µM (Bcl-xL-Beclin 1 complex [2]): 25.6%
CCCCCCCCCCCCCCCCC(C(=O)O)C(O)(CC(=O)O)C(=O)O (centres unmarked) [Compound A19, AGARIC ACID] | 118.2 |  |  |  |  |  |  |  | Primary Screen % Inhibition (Bcl-xL-Beclin 1 complex [1]): 15.85%; Dose-response (% Inhibition) 5 μM (Bcl-xL-Beclin 1 complex [2]; 5 μM, hits of first screen): 3.8%; Dose-response (% Inhibition) 10 μM (Bcl-xL-Beclin 1 complex [2]; 10 μM, hits of first screen): 6.3%; Dose-response (% Inhibition) 20 μM (Bcl-xL-Beclin 1 complex [2]; 20 μM, hits of first screen): 9.1%; Dose-response (% Inhibition) 40 μM (Bcl-xL-Beclin 1 complex [2]; 40 μM, hits of first screen): 12.7%; Dose-response (% Inhibition) 80 μM (Bcl-xL-Beclin 1 complex [2]; 80 μM, hits of first screen): 20.3%; Dose-response (% Inhibition) 160 μM (Bcl-xL-Beclin 1 complex [2]; 160 μM, hits of first screen): 20.9%
CCc1oc2ccccc2c1C(=O)c1cc(Br)c(O)c(Br)c1 [Compound A20, BENZBROMARONE] | 125.0 | 9.05 | 0.2 | 0.6 | 1 | 1.1 | 6.1 | 11.3 | 
OCCN(CCO)c1nc(N2CCCCC2)c2nc(N(CCO)CCO)nc(N3CCCCC3)c2n1 [Compound A22, DIPYRIDAMOLE] | 72.7 | 47.8 | 10.1 | 21 | 35.1 | 46.7 | 62.9 | 72.4 | 
CC[C@@]1(O)C(=O)OCc2c1cc1n(c2=O)Cc2cc3c(CN(C)C)c(O)ccc3nc2-1 [Compound A23, TOPOTECAN HYDROCHLORIDE] | 43.8 | 68.7 | 39.8 | 54.8 | 64.7 | 70.9 | 102 | 103 | 
COc1cccc2c1C(=O)c1c(O)c3c(c(O)c1C2=O)C[C@@](O)(C(=O)CO)C[C@@H]3O[C@H]1C[C@H](N)[C@@H](O)[C@H](C)O1 [Compound A24, EPIRUBICIN HYDROCHLORIDE] | 136.0 | 22.8 | 6.8 | 11.3 | 16.2 | 23.1 | 34.4 | 40.9 | 
COc1cccc2c1C(=O)c1c(O)c3c(c(O)c1C2=O)C[C@@](O)(C(=O)CO)C[C@@H]3O[C@H]1C[C@H](N)[C@H](O)[C@H](C)O1 [Compound A25, DOXORUBICIN HYDROCHLORIDE] | 75.9 | 44 | 18.9 | 29.1 | 36.5 | 41.7 | 48.6 | 53.2 | 
C[n+]1c2cc(N)ccc2cc2ccc(N)cc21.[Cl-] [Compound A26, ACRIFLAVINIUM HYDROCHLORIDE] | -3.2 |  |  |  |  |  |  |  | Primary Screen % Inhibition (Bcl-xL-Beclin 1 complex [1]): 102.40%; Dose-response (% Inhibition) 5 μM (Bcl-xL-Beclin 1 complex [2]; 5 μM, hits of first screen): 102.5%; Dose-response (% Inhibition) 10 μM (Bcl-xL-Beclin 1 complex [2]; 10 μM, hits of first screen): 102.5%; Dose-response (% Inhibition) 20 μM (Bcl-xL-Beclin 1 complex [2]; 20 μM, hits of first screen): 102.5%; Dose-response (% Inhibition) 40 μM (Bcl-xL-Beclin 1 complex [2]; 40 μM, hits of first screen): 102.5%; Dose-response (% Inhibition) 80 μM (Bcl-xL-Beclin 1 complex [2]; 80 μM, hits of first screen): 102.0%; Dose-response (% Inhibition) 160 μM (Bcl-xL-Beclin 1 complex [2]; 160 μM, hits of first screen): 102.4%
